A short description of data set [1]: Plasma protein binding rate, equilibrium dialysis (human plasma). It is filed as in vitro ADME. As to conditions: dialysis 4 hours at 37 °C, read-out: Unbound PPB%. The procedure:
(§1) The protein binding rates of the compounds in the plasma of CD-1 mice, Sprague-Dawley rats, beagle dogs, cynomolgus monkeys, and human were determined using equilibrium dialysis method.
(§2) Commercially available plasma, dual-layer dialysis membrane, and equilibrium dialysis device.
(§3) The dual-layer dialysis membrane was soaked in ultrapure water for about 1 hour, removed and then divided into two parts. It was then soaked in an ethanol:water (20:80, v:v) solution for 20 minutes or placed at 2 to 8 °C, and it was valid for 1 month. Before starting the assay, the dialysis membrane was rinsed twice with ultrapure water and then soaked in ultrapure water for another 20 minutes for later use.
(§4) On the day of assay, the frozen plasma of CD-1 mice, Sprague-Dawley rats, beagle dogs, cynomolgus monkeys, and human was thawed in running cold tap water. After the plasma was completely thawed, the plasma was centrifuged at 3220×g for 5 minutes, and the suspended substances and precipitates in it were removed. The pH of the plasma was determined. The plasma with a pH in the range of 7.4 ± 0.1 was directly used, or the plasma with a pH in the range of 7.4 ± 0.1 after an adjustment with 1% phosphoric acid or 1M sodium hydroxide was used.
(§5) Preparation process of plasma samples: 597 µL of blank plasma from each of the above five species was taken, respectively. 3 µL of a compound or warfarin working solution was added, and the mixture was mixed thoroughly to give a plasma sample with a compound concentration of 2 µM and a warfarin concentration of 2 µM (n=1). The concentration of the organic phase DMSO was 0.5%. The sample was thoroughly mixed before proceeding to the next step.
(§6) Preparation process of T0 samples: 50 µL of a plasma sample containing the compound and warfarin was transferred to a sample receiving plate (n=3), and 50 µL of blank PBS was immediately added. Then, 500 µL of stop solution was added to the T0 sample of the compound and warfarin, and the mixture was stored at 2 to 8 °C, waiting to be processed later together with other dialysis-processed samples.
(§7) Dialysis process of plasma samples: 100 µL of a compound (2 µM) and warfarin (2 µM) plasma sample was added to the donor of each dialysis well (n=3), and 100 µL of blank PBS was added to the corresponding receiver of the dialysis well. The dialysis plate was placed in a 5% CO2 incubator, and incubated at 37 °C with shaking at approximately 100 rpm for 4 hours.
(§8) After the dialysis was completed, 50 µL of dialysis-processed PBS sample and dialysis-processed plasma sample (n=3) were transferred to a new 96-well plate (sample receiving plate). The corresponding volume of the corresponding blank plasma or PBS was added to the sample to make the final volume of each sample well 100 µL, with a plasma to PBS volume ratio of 1:1. All the samples were analyzed by LC-MS/MS after protein precipitation.
(§9) The formulas for calculating the unbound fraction (%Unbound), bound fraction (%Bound) and recovery fraction (%Recovery) of a compound are as follows: %Unbound = 100 ×F / T %Bound = 100 - %Unbound %Recovery = 100 ×(F + T)/ T0 wherein F is the concentration of the compound at the receiver of dialysis; T is the concentration of the compound at the supply end of dialysis; and T0 is the concentration of the compound in the plasma at time zero.

The nature of data set [2]: Stability in liver microsomes (dog). Format: in vitro ADME, beagle dogs. As to conditions: d (beagle dog liver microsomes), 0.5 mg/mL, read-out: MMS Clint. The procedure: The purpose of this study was to evaluate the phase I metabolic stability of the assay sample in liver microsomes from CD-1 mice, Sprague-Dawley (SD) rats, beagle dogs, cynomolgus monkeys, and human.
The animal and human liver microsomes used in this assay system were purchased from Xenotech, Corning, or other qualified suppliers.
Preparation of buffer: 73.21 g of potassium phosphate dibasic trihydrate and 10.78 g of potassium dihydrogen phosphate were dissolved in 4000 mL of ultrapure water. The pH of the solution was adjusted to the range of 7.40 ± 0.10 using 10.0% phosphoric acid or 1.00 M potassium hydroxide. Its final concentration was 100 mM.
Preparation of working solutions: An assay sample powder was prepared into a 10.0 mM stock solution with DMSO, and then further diluted with a suitable organic solvent. The control compounds testosterone, diclofenac, and propafenone were prepared into 10.0 mM stock solutions using DMSO, and then further diluted with a suitable organic solvent.
Preparation of liver microsome solution: Microsomes of various species were diluted with 100 mM potassium phosphate buffer to a working solution of 0.56 mg/mL. The final concentration of microsomes in the reaction system was 0.500 mg/mL. Detailed preparation procedures were described in the experimental records.
Preparation of reduced nicotinamide adenine dinucleotide phosphate (NADPH) solution: An appropriate amount of reduced nicotinamide adenine dinucleotide phosphate was dissolved in magnesium chloride solution, and the mixture was shaken to mix well. The final concentrations in the reaction system were 1.00 mM NADPH and 1.00 mM magnesium chloride, respectively. Detailed preparation procedures were described in the experimental records.
Preparation of stop solution: The stop solution was prepared using acetonitrile containing internal standards (tolbutamide and labetalol). The prepared stop solution was stored at 2.0 to 8.0 °C in a refrigerator. Detailed preparation procedures were described in the experimental records. […]

The nature of data set [3]: Plasma protein binding rate, equilibrium dialysis (rat plasma). The conditions noted are these: r (Sprague-Dawley rat plasma), dialysis 4 hours at 37 °C, read-out: Unbound PPB%. It is filed as in vitro ADME, Sprague-Dawley rats. The procedure: as §1, §2, §3, §4, §5, §6, §7, §8, §9

The text below walks through data of EP4786454A1, “HETEROARYL DERIVATIVE AND USE THEREOF” (priority 2023, dated 2025).

With `CC(C)(C)CC(=O)Nc1nc2c(F)cc(C#N)cn2c1-c1ccc(OC(F)(F)F)cc1` [Compound 1], the fraction unbound at 4 h, 2 µM came to 0.051 in data set [1] and 0.071 in data set [3]. For the same molecule, the CLint scaled at 1 µM in data set [2] worked out at 16 mL/min/kg.

Regarding `CC(C)(C)CC(=O)Nc1nc2c(F)cc(C#N)cn2c1C1=CCCC1` [Compound 3], the fraction unbound at 4 h, 2 µM amounted to 0.109 in data set [1] and 0.097 in data set [3]. The CLint scaled at 1 µM in data set [2] is less than 14 mL/min/kg.

As to `CC(C)(C)CC(=O)Nc1nc2c(F)cc(C#N)cn2c1C12CC(C1)C2` [Compound 5], the fraction unbound at 4 h, 2 µM was 0.231 in data set [1] and 0.166 in data set [3]. The CLint scaled at 1 µM in data set [2] was less than 13.8 mL/min/kg.
